Experimental data from PubChem BioAssay AID406 (SGCOxCompounds, 2006).

molecular target: mRNA-capping enzyme (Homo sapiens) (UniProt O60942); assay: inhibition of human mRNA capping enzyme RNGTT – biochemical, DiFMUP fluorescence, recombinant (AID 406); details: DiFMUP phosphatase fluorescence, at 50 µM, stronger effect = higher value
Sequence (O60942 whole entry, looked up): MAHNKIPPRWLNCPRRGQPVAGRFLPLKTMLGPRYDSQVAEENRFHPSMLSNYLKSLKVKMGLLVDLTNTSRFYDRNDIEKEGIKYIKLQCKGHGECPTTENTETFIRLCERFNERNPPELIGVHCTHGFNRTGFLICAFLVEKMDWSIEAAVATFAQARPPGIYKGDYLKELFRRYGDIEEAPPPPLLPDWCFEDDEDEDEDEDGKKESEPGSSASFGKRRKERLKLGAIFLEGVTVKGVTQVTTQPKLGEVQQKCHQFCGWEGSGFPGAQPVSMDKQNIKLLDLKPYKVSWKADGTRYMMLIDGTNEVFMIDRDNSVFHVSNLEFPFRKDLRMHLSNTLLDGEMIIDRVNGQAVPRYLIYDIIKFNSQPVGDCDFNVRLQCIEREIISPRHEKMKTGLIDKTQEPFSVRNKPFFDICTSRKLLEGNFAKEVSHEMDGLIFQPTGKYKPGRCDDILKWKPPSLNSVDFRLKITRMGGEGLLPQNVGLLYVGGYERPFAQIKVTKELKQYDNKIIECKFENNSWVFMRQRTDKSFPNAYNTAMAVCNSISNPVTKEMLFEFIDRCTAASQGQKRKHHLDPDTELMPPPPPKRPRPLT

SMILES	inhibition
OO.OO.[K+].[O]=[V].c1ccc(-c2ccccn2)nc1	41%
O=C1NC(=S)NC(=O)C1=C/C=C/c1ccco1	22%
O=C1NC(=S)S/C1=C\C=C\c1ccc([N+](=O)[O-])o1	60%
CC(C)(c1ccc(NS(=O)(=O)C(F)(F)F)cc1)c1ccc(C(C)(C)c2ccc(NS(=O)(=O)C(F)(F)F)cc2)cc1	37%
NC1=NC(=O)/C(=C/C=C/c2ccc([N+](=O)[O-])o2)S1	33%
O=C(O)c1ccc(O)cn1.OO.[O]=[V]	51%
CN(N=O)c1ccc(O)c(O)c1	33%
c1ccc([C@H]2CN3CCSC3=N2)cc1	29%
O=C([O-])c1ccccn1.OO.OO.[K+].[K+].[O]=[V]	36%
CC(=O)c1ccc2c(c1)C1C=CCC1C(C(=O)O)N2 (configuration not stated)	41%
O=C(O)c1ccc([O-])cn1.OO.OO.[K+].[K+].[O]=[V]	47%
OO.OO.[K+].[O]=[V].c1cnc2c(c1)ccc1cccnc12	22%
